ChEMBL document CHEMBL3885881, “DrugMatrix”

Species on record: Rattus norvegicus
Experiment: DrugMatrix - Regimen: Daily Repeat
Assay type: toxicity, organism-based, Sprague-Dawley
Design: regimen Daily Repeat, gender Male, age 6-8 weeks
Conditions: in vivo, po, route oral GAVAGE, vehicle 100 % WATER; for ABSOLUTE BASOPHIL / ABSOLUTE EOSINOPHIL / ABSOLUTE LYMPHOCYTE / ABSOLUTE MONOCYTE / ABSOLUTE SEGMENTED NEUTROPHIL / BASOPHIL / EOSINOPHIL / ERYTHROCYTE COUNT / HEMATOCRIT / HEMOGLOBIN / LEUKOCYTE COUNT / LYMPHOCYTE / MEAN CORPUSCULAR HEMOGLOBIN / MEAN CORPUSCULAR HEMOGLOBIN CONCENTRATION / MEAN CORPUSCULAR VOLUME / MONOCYTE / NEUTROPHIL / NUCLEATED RED BLOOD CELLS / PLATELET COUNT: tissue Blood; for ALANINE AMINOTRANSFERASE / ALBUMIN / ALKALINE PHOSPHATASE / ASPARTATE AMINOTRANSFERASE / BLOOD UREA NITROGEN / CARBON DIOXIDE / CHLORIDE / CHOLESTEROL / CREATINE PHOSPHOKINASE / CREATININE / GLUCOSE / LACTATE DEHYDROGENASE / LIPASE / PHOSPHORUS / POTASSIUM / SODIUM / TOTAL BILIRUBIN / TOTAL PROTEIN / URIC ACID: tissue Plasma
[1] = 14 mg/kg, 120 h, dose level Low, time 5 day
[2] = 1000 mg/kg, 72 h, dose level High, time 3 day
[3] = 1000 mg/kg, 120 h, dose level High, time 5 day

SMILES: C[C@H]1c2cccc(O)c2C(=O)C2=C(O)[C@]3(O)C(=O)C(C(N)=O)=C(O)[C@@H](N(C)C)[C@@H]3[C@@H](O)[C@@H]21.O [DOXYCYCLINE]
- ABSOLUTE BASOPHIL [1]: 0 CELLS/uL
- ABSOLUTE EOSINOPHIL [1]: 22.33 CELLS/uL
- ABSOLUTE LYMPHOCYTE [1]: 6462.67 CELLS/uL
- ABSOLUTE MONOCYTE [1]: 105.33 CELLS/uL
- ABSOLUTE SEGMENTED NEUTROPHIL [1]: 909.67 CELLS/uL
- BASOPHIL [1]: 0%
- EOSINOPHIL [1]: 0.33%
- ERYTHROCYTE COUNT [1]: 5.81 x10E6/uL
- HEMATOCRIT [1]: 36.47%
- HEMOGLOBIN [1]: 13.87 G/DL
- LEUKOCYTE COUNT [1]: 7.5 x10E3/uL
- LYMPHOCYTE [1]: 86.67%
- MEAN CORPUSCULAR HEMOGLOBIN [1]: 23.9 pg
- MEAN CORPUSCULAR HEMOGLOBIN CONCENTRATION [1]: 38.1 G/DL
- MEAN CORPUSCULAR VOLUME [1]: 62.77 fL
- MONOCYTE [1]: 1.33%
- NEUTROPHIL [1]: 11.67%
- NUCLEATED RED BLOOD CELLS [1]: 0.33 /100WBC
- PLATELET COUNT [1]: 1055 x10E3/uL
- ALANINE AMINOTRANSFERASE [1]: 56.67 u/L
- ALBUMIN [1]: 4.23 G/DL
- ALKALINE PHOSPHATASE [1]: 411.33 u/L
- ASPARTATE AMINOTRANSFERASE [1]: 92 u/L
- BLOOD UREA NITROGEN [1]: 17.67 mg/dL
- CARBON DIOXIDE [1]: 32 mmol/L
- CHLORIDE [1]: 101.67 MEQ/L
- CHOLESTEROL [1]: 67 mg/dL
- CREATINE PHOSPHOKINASE [1]: 551.33 u/L
- CREATININE [1]: 0.19 mg/dL
- GLUCOSE [1]: 154.67 mg/dL
- LACTATE DEHYDROGENASE [1]: 117 u/L
- LIPASE [1]: 11 u/L
- PHOSPHORUS [1]: 11.33 mg/dL
- POTASSIUM [1]: 6.02 MEQ/L
- SODIUM [1]: 147 MEQ/L
- TOTAL BILIRUBIN [1]: 0.1 mg/dL
- TOTAL PROTEIN [1]: 6.37 G/DL
- URIC ACID [1]: 0.8 mg/dL
- ABSOLUTE BASOPHIL [2]: 0 CELLS/uL
- ABSOLUTE EOSINOPHIL [2]: 0 CELLS/uL
- ABSOLUTE LYMPHOCYTE [2]: 7696.67 CELLS/uL
- ABSOLUTE MONOCYTE [2]: 0 CELLS/uL
- ABSOLUTE SEGMENTED NEUTROPHIL [2]: 736.67 CELLS/uL
- BASOPHIL [2]: 0%
- EOSINOPHIL [2]: 0%
- ERYTHROCYTE COUNT [2]: 5.23 x10E6/uL
- HEMATOCRIT [2]: 32.1%
- HEMOGLOBIN [2]: 12.57 G/DL
- LEUKOCYTE COUNT [2]: 8.43 x10E3/uL
- LYMPHOCYTE [2]: 92.33%
- MEAN CORPUSCULAR HEMOGLOBIN [2]: 24.07 pg
- MEAN CORPUSCULAR HEMOGLOBIN CONCENTRATION [2]: 39.17 G/DL
- MEAN CORPUSCULAR VOLUME [2]: 61.4 fL
- MONOCYTE [2]: 0%
- NEUTROPHIL [2]: 7.67%
- NUCLEATED RED BLOOD CELLS [2]: 0 /100WBC
- PLATELET COUNT [2]: 1333.67 x10E3/uL
- ALANINE AMINOTRANSFERASE [2]: 59.33 u/L
- ALBUMIN [2]: 4.03 G/DL
- ALKALINE PHOSPHATASE [2]: 294.67 u/L
- ASPARTATE AMINOTRANSFERASE [2]: 81 u/L
- BLOOD UREA NITROGEN [2]: 14.67 mg/dL
- CARBON DIOXIDE [2]: 32.33 mmol/L
- CHLORIDE [2]: 103 MEQ/L
- CHOLESTEROL [2]: 89 mg/dL
- CREATINE PHOSPHOKINASE [2]: 186 u/L
- CREATININE [2]: 0.18 mg/dL
- GLUCOSE [2]: 146 mg/dL
- LACTATE DEHYDROGENASE [2]: 161.33 u/L
- LIPASE [2]: 12.33 u/L
- PHOSPHORUS [2]: 10.9 mg/dL
- POTASSIUM [2]: 5.89 MEQ/L
- SODIUM [2]: 146.35 MEQ/L
- TOTAL BILIRUBIN [2]: 0.0667 mg/dL
- TOTAL PROTEIN [2]: 5.97 G/DL
- URIC ACID [2]: 1.2 mg/dL
- ABSOLUTE BASOPHIL [3]: 0 CELLS/uL
- ABSOLUTE EOSINOPHIL [3]: 19.67 CELLS/uL
- ABSOLUTE LYMPHOCYTE [3]: 6922.33 CELLS/uL
- ABSOLUTE MONOCYTE [3]: 67.67 CELLS/uL
- ABSOLUTE SEGMENTED NEUTROPHIL [3]: 1023.67 CELLS/uL
- BASOPHIL [3]: 0%
- EOSINOPHIL [3]: 0.33%
- ERYTHROCYTE COUNT [3]: 5.99 x10E6/uL
- HEMATOCRIT [3]: 36.73%
- HEMOGLOBIN [3]: 14.13 G/DL
- LEUKOCYTE COUNT [3]: 8.03 x10E3/uL
- LYMPHOCYTE [3]: 85.67%
- MEAN CORPUSCULAR HEMOGLOBIN [3]: 23.63 pg
- MEAN CORPUSCULAR HEMOGLOBIN CONCENTRATION [3]: 38.53 G/DL
- MEAN CORPUSCULAR VOLUME [3]: 61.37 fL
- MONOCYTE [3]: 1%
- NEUTROPHIL [3]: 13%
- NUCLEATED RED BLOOD CELLS [3]: 0 /100WBC
- PLATELET COUNT [3]: 1104.67 x10E3/uL
- ALANINE AMINOTRANSFERASE [3]: 56 u/L
- ALBUMIN [3]: 3.97 G/DL
- ALKALINE PHOSPHATASE [3]: 312 u/L
- ASPARTATE AMINOTRANSFERASE [3]: 84.33 u/L
- BLOOD UREA NITROGEN [3]: 21 mg/dL
- CARBON DIOXIDE [3]: 32 mmol/L
- CHLORIDE [3]: 99.67 MEQ/L
- CHOLESTEROL [3]: 87.33 mg/dL
- CREATINE PHOSPHOKINASE [3]: 239.67 u/L
- CREATININE [3]: 0.26 mg/dL
- GLUCOSE [3]: 138 mg/dL
- LACTATE DEHYDROGENASE [3]: 100.67 u/L
- LIPASE [3]: 11.33 u/L
- PHOSPHORUS [3]: 10.53 mg/dL
- POTASSIUM [3]: 6.12 MEQ/L
- SODIUM [3]: 146.5 MEQ/L
- TOTAL BILIRUBIN [3]: 0.13 mg/dL
- TOTAL PROTEIN [3]: 5.87 G/DL
- URIC ACID [3]: 0.97 mg/dL
